# Experiments:
# [1] = molecular target: SMARCA4 (Homo sapiens, UniProt P51532); experiment: HiBiT assay for protein degradation, Hela SMARCA4-HiBiT cells (A series); type: cell-based; set-up: fuse HiBiT to the carboxy terminus of SMARCA2 (Promega CS302365) or SMARCA4 (Promega CS3023225); host or cells: HeLa (CRISPR/Cas9 HiBiT knock-in); settings: Hela SMARCA4-HiBiT cells, 24 hours treatment; for DC50: read-out: SMARC A4 Hela HiBit DC50; for Dmax: read-out: SMARC A4 Hela HiBit Dmax
# In short: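 SMARCA4 degradation was measured in HeLa cells in which HiBiT had been knocked into the SMARCA4 carboxy terminus via CRISPR/Cas9 (Promega CS3023225). Cells were maintained in DMEM with FBS and penicillin-streptomycin. At the end of treatment, SMARCA4 levels were read by lytic HiBiT luminescence (Nano-Glo®, Promega N3050), and data were analyzed with GraphPad Prism.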
# [2] = molecular target: SMARCA2 (Homo sapiens, UniProt P51531); experiment: HiBiT assay for protein degradation, Hela SMARCA2-HiBiT cells (A series); type: cell-based; set-up: Hela cells were genetically modified via CRISPR/Cas9 to fuse HiBiT to the carboxy terminus of SMARCA2; host or cells: HeLa (CRISPR/Cas9 HiBiT knock-in); settings: Hela SMARCA2-HiBiT cells, 24 hours treatment; for DC50: read-out: SMARC A2 Hela HiBit DC50; for Dmax: read-out: SMARC A2 Hela HiBit Dmax (%);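 on SMARC A2 Hela HiBit Dmax (%): 24 h compound treatment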
# Sequence of SMARCA2 (P51531 whole entry): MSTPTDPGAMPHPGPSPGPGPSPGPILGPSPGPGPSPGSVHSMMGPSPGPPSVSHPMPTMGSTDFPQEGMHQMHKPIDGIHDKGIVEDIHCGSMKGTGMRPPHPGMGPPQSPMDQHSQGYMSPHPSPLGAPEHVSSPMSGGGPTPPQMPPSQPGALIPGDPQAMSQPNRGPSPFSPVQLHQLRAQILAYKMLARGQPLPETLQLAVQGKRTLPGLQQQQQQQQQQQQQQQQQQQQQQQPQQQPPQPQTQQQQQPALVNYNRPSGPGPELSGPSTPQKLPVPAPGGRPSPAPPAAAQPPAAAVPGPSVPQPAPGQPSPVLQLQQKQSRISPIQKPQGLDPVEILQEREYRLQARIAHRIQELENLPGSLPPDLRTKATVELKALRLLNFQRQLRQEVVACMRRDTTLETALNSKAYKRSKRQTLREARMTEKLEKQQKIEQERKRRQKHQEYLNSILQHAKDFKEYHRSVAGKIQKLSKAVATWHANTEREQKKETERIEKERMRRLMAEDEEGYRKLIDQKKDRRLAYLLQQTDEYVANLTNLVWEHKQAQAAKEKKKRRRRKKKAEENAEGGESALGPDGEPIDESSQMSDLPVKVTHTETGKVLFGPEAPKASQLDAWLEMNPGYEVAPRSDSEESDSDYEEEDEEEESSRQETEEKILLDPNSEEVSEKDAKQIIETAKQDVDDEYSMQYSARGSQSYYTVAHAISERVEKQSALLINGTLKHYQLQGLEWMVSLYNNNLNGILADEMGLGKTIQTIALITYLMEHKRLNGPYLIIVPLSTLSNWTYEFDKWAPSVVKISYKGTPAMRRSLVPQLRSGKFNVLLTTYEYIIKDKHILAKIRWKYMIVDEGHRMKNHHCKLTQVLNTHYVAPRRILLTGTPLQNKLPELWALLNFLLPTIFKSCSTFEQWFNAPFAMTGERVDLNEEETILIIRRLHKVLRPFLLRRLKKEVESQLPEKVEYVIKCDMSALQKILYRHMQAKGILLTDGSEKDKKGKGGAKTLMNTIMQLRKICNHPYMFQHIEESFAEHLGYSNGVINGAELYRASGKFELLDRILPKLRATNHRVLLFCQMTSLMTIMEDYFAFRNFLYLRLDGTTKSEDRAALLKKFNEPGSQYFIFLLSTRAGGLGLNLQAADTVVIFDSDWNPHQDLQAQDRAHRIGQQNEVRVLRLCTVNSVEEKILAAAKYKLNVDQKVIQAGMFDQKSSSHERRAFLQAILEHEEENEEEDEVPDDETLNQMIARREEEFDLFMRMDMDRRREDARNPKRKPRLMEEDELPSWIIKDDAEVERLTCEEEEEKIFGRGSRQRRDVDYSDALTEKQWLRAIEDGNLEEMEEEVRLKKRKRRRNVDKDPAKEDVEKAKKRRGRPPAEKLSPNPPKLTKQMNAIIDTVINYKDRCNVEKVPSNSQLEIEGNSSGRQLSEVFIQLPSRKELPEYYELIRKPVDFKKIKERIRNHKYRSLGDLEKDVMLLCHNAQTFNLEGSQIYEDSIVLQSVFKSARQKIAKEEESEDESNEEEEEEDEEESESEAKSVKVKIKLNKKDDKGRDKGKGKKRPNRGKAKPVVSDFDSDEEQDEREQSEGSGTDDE
# In short: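 SMARCA2 degradation was measured in HeLa cells whose endogenous SMARCA2 carries a carboxy-terminal HiBiT tag introduced by CRISPR/Cas9 (Promega CS302365). Cells were maintained in DMEM with FBS and penicillin-streptomycin. SMARCA2 levels were read at the end of the experiment by Nano-Glo® HiBiT lytic luminescence (Promega N3050) and analyzed in GraphPad Prism.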
# Sequence of SMARCA4 (P51532 whole entry): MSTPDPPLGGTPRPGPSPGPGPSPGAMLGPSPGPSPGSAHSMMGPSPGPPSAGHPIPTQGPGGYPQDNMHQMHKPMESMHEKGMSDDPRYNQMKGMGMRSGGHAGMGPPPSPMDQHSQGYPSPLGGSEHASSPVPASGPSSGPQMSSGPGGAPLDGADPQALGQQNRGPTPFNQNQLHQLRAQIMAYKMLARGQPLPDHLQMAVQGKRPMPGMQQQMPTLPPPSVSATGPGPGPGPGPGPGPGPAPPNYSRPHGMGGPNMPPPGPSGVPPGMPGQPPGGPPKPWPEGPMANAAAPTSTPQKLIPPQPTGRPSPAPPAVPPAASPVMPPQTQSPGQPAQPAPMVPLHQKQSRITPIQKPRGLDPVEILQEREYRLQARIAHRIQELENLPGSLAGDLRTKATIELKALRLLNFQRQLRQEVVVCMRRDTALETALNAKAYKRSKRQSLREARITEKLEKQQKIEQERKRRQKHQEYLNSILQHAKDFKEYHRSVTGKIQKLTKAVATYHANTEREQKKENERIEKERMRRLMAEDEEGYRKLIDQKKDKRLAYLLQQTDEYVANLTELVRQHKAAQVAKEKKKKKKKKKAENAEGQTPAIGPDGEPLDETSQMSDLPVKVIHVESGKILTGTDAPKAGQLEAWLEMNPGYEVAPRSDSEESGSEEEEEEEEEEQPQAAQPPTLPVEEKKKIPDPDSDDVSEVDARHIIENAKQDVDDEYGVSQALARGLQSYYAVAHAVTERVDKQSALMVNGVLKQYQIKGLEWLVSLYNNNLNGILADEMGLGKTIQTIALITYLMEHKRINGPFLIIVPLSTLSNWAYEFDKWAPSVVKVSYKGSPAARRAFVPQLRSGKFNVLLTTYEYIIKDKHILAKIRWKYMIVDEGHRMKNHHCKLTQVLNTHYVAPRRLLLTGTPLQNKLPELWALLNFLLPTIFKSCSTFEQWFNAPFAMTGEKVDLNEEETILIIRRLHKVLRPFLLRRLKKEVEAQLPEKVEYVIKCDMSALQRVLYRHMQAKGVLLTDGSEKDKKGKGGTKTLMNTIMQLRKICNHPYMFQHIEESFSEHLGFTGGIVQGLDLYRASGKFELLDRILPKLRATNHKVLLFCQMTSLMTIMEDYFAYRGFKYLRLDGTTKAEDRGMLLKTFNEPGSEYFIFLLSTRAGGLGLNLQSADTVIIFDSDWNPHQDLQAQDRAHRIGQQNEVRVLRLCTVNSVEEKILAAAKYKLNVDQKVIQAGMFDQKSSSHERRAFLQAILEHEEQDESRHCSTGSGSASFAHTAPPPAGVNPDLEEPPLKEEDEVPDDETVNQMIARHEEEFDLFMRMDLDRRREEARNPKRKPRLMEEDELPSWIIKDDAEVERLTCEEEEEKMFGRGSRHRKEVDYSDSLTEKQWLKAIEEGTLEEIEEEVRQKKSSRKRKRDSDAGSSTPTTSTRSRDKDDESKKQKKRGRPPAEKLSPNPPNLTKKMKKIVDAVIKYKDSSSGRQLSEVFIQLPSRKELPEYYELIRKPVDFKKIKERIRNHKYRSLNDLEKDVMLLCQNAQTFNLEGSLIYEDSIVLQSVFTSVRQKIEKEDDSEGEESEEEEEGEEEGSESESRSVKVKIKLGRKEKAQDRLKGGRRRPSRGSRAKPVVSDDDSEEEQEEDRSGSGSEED
SMILES,DC50 [1],Dmax [1],DC50 [2],Dmax [2],SMARC A4 Hela HiBit DC50(nM) [1]
"Cc1ncsc1-c1ccc([C@H](CNC(=O)[C@H]2CC[C@H](CN3CCC(c4ccc5c(c4)-n4c(nc(=O)c6c(Br)cccc64)C54CCCCC4)CC3)CC2)NC(=O)[C@@H]2C[C@@H](O)CN2C(=O)[C@@H](n2cc(C3CC3)nn2)C(C)(C)C)cc1 [Compound A116, (2S,4R)—N—((R)-2-((1r,4R)-4-((4-(4′-bromo-5′-oxo-5′H-spiro[cyclohexane-1,7′-indolo[1,2-a]quinazolin]-10′-yl)piperidin-1-yl)methyl)cyclohexane-1-carboxamido)-1-(4-(4-methylthiazol-5-yl)phenyl)ethyl)-1-((S)-2-(4-cyclopropyl-1H-1,2,3-triazol-1-yl)-3,3-dimethylbutanoyl)-4-hydroxypyrrolidine-2-carboxamide]",> 1000 nM,< 50%,> 1000 nM,< 50%,–
"Cc1ncsc1-c1ccc([C@H](CNC(=O)[C@H]2CC[C@H](CN3CCC(c4ccc5c(c4)C4(CCCCC4)c4nc(=O)c6c(Br)cccc6n4-5)CC3)CC2)NC(=O)[C@@H]2C[C@@H](O)CN2C(=O)[C@@H](n2cc(C3CC3)nn2)C(C)(C)C)cc1 [Compound A117, (2S,4R)—N—((R)-2-((1r,4R)-4-((4-(4′-bromo-5′-oxo-5′H-spiro[cyclohexane-1,7′-indolo[1,2-a]quinazolin]-9′-yl)piperidin-1-yl)methyl)cyclohexane-1-carboxamido)-1-(4-(4-methylthiazol-5-yl)phenyl)ethyl)-1-((S)-2-(4-cyclopropyl-1H-1,2,3-triazol-1-yl)-3,3-dimethylbutanoyl)-4-hydroxypyrrolidine-2-carboxamide]",> 1000 nM,< 50%,> 1000 nM,< 50%,–
"Cc1ncsc1-c1ccc([C@H](C)NC(=O)[C@@H]2C[C@@H](O)CN2C(=O)[C@H](C2CCCCC2)n2cc([C@H]3CC[C@H](CN4CCC(c5ccc6c(c5)-n5c(nc(=O)c7c(Cl)cccc75)C65CCCCC5)CC4)CC3)nn2)cc1 [Compound A118, (2S,4R)-1-((S)-2-(4-((1r,4S)-4-((4-(4′-chloro-5′-oxo-5′H-spiro[cyclohexane-1,7′-indolo[1,2-a]quinazolin]-10′-yl)piperidin-1-yl)methyl)cyclohexyl)-1H-1,2,3-triazol-1-yl)-2-cyclohexylacetyl)-4-hydroxy-N—((S)-1-(4-(4-methylthiazol-5-yl)phenyl)ethyl)pyrrolidine-2-carboxamide]",100 to 1000 nM,50 to 69%,< 10 nM,> 90%,–
"Cc1ncsc1-c1ccc([C@H](C)NC(=O)[C@@H]2C[C@@H](O)CN2C(=O)[C@H](C2CCCCC2)n2cc([C@H]3CC[C@H](CN4CCC(c5ccc6c(c5)-n5c(nc(=O)c7c(Br)cccc75)C65CCCCC5)CC4)CC3)nn2)cc1 [Compound A119, (2S,4R)-1-((S)-2-(4-((1r,4S)-4-((4-(4′-bromo-5′-oxo-5′H-spiro[cyclohexane-1,7′-indolo[1,2-a]quinazolin]-10′-yl)piperidin-1-yl)methyl)cyclohexyl)-1H-1,2,3-triazol-1-yl)-2-cyclohexylacetyl)-4-hydroxy-N—((S)-1-(4-(4-methylthiazol-5-yl)phenyl)ethyl)pyrrolidine-2-carboxamide]",10 to 100 nM,70 to 90%,< 10 nM,> 90%,–
"Cc1ncsc1-c1ccc([C@H](C)NC(=O)[C@@H]2C[C@@H](O)CN2C(=O)[C@H](C2CCOCC2)n2cc([C@H]3CC[C@H](CN4CCC(c5ccc6c(c5)-n5c(nc(=O)c7c(Cl)cccc75)C65CCCCC5)CC4)CC3)nn2)cc1 [Compound A120, (2S,4R)-1-((S)-2-(4-((1r,4S)-4-((4-(4′-chloro-5′-oxo-5′H-spiro[cyclohexane-1,7′-indolo[1,2-a]quinazolin]-10′-yl)piperidin-1-yl)methyl)cyclohexyl)-1H-1,2,3-triazol-1-yl)-2-(tetrahydro-2H-pyran-4-yl)acetyl)-4-hydroxy-N—((S)-1-(4-(4-methylthiazol-5-yl)phenyl)ethyl)pyrrolidine-2-carboxamide]",–,50 to 69%,< 10 nM,> 90%,No fit
"Cc1ncsc1-c1ccc([C@H](C)NC(=O)[C@@H]2C[C@@H](O)CN2C(=O)[C@H](C2CCOCC2)n2cc([C@H]3CC[C@H](CN4CCC(c5ccc6c(c5)-n5c(nc(=O)c7c(Br)cccc75)C65CCCCC5)CC4)CC3)nn2)cc1 [Compound A121, (2S,4R)-1-((S)-2-(4-((1r,4S)-4-((4-(4′-bromo-5′-oxo-5′H-spiro[cyclohexane-1,7′-indolo[1,2-a]quinazolin]-10′-yl)piperidin-1-yl)methyl)cyclohexyl)-1H-1,2,3-triazol-1-yl)-2-(tetrahydro-2H-pyran-4-yl)acetyl)-4-hydroxy-N—((S)-1-(4-(4-methylthiazol-5-yl)phenyl)ethyl)pyrrolidine-2-carboxamide]",–,70 to 90%,< 10 nM,> 90%,No fit
"Cc1ncsc1-c1ccc([C@H](CN2CCOCC2)NC(=O)[C@@H]2C[C@@H](O)CN2C(=O)[C@H](C2CCCCC2)n2cc([C@H]3CC[C@H](CN4CCC(c5ccc6c(c5)-n5c(nc(=O)c7c(Cl)cccc75)C65CCCCC5)CC4)CC3)nn2)cc1 [Compound A122, (2S,4R)-1-((S)-2-(4-((1r,4S)-4-((4-(4′-chloro-5′-oxo-5′H-spiro[cyclohexane-1,7′-indolo[1,2-a]quinazolin]-10′-yl)piperidin-1-yl)methyl)cyclohexyl)-1H-1,2,3-triazol-1-yl)-2-cyclohexylacetyl)-4-hydroxy-N—((R)-1-(4-(4-methylthiazol-5-yl)phenyl)-2-morpholinoethyl)pyrrolidine-2-carboxamide]",–,50 to 69%,< 10 nM,> 90%,No fit
"Cc1ncsc1-c1ccc([C@H](CN2CCOCC2)NC(=O)[C@@H]2C[C@@H](O)CN2C(=O)[C@H](C2CCCCC2)n2cc([C@H]3CC[C@H](CN4CCC(c5ccc6c(c5)-n5c(nc(=O)c7c(Br)cccc75)C65CCCCC5)CC4)CC3)nn2)cc1 [Compound A123, (2S,4R)-1-((S)-2-(4-((1r,4S)-4-((4-(4′-bromo-5′-oxo-5′H-spiro[cyclohexane-1,7′-indolo[1,2-a]quinazolin]-10′-yl)piperidin-1-yl)methyl)cyclohexyl)-1H-1,2,3-triazol-1-yl)-2-cyclohexylacetyl)-4-hydroxy-N—((R)-1-(4-(4-methylthiazol-5-yl)phenyl)-2-morpholinoethyl)pyrrolidine-2-carboxamide]",10 to 100 nM,70 to 90%,< 10 nM,> 90%,–
"Cc1ncsc1-c1ccc([C@H](C)NC(=O)[C@@H]2C[C@@H](O)CN2C(=O)[C@H](C2CCCCC2)n2cc([C@H]3CC[C@H](CN4CCC(c5ccc6c(c5)-n5c(nc(=O)c7c(Cl)cccc75)C6(C)C)CC4)CC3)nn2)cc1 [Compound A124, (2S,4R)-1-((S)-2-(4-((1r,4S)-4-((4-(4-chloro-7,7-dimethyl-5-oxo-5,7-dihydroindolo[1,2-a]quinazolin-10-yl)piperidin-1-yl)methyl)cyclohexyl)-1H-1,2,3-triazol-1-yl)-2-cyclohexylacetyl)-4-hydroxy-N—((S)-1-(4-(4-methylthiazol-5-yl)phenyl)ethyl)pyrrolidine-2-carboxamide]",–,< 50%,< 10 nM,> 90%,No fit
"Cc1ncsc1-c1ccc([C@H](CN2CCOCC2)NC(=O)[C@@H]2C[C@@H](O)CN2C(=O)[C@H](C2CCCCC2)n2cc([C@H]3CC[C@H](CN4CCC(c5ccc6c(c5)-n5c(nc(=O)c7c(Cl)cccc75)C6(C)C)CC4)CC3)nn2)cc1 [Compound A125, (2S,4R)-1-((S)-2-(4-((1r,4S)-4-((4-(4-chloro-7,7-dimethyl-5-oxo-5,7-dihydroindolo[1,2-a]quinazolin-10-yl)piperidin-1-yl)methyl)cyclohexyl)-1H-1,2,3-triazol-1-yl)-2-cyclohexylacetyl)-4-hydroxy-N—((R)-1-(4-(4-methylthiazol-5-yl)phenyl)-2-morpholinoethyl)pyrrolidine-2-carboxamide]",–,50 to 69%,< 10 nM,> 90%,No fit

# — patent publication US20260092071A1, “COMPOUNDS AND COMPOSITIONS AS SMARCA2/4 DEGRADERS AND USES THEREOF” (REGENTS OF THE UNIVERSITY OF MICHIGAN, priority 2022, published 2026)
